{"source": "patent US4431639A", "about": "“Adjuvant for stimulating production of lymphocytes” (priority 1979, dated 1984)", "system": "Sarcoma 180", "assay": "Survival / recovery of mice after intraperitoneal inoculation of Sarcoma 180", "format": "in vivo, mice (I.C.R.)", "settings": "for effectiveness against Sarcoma 180 compared with the extract of the natural herb: comparison in words; for effectiveness for treating mice inoculated with Sarcoma 180: in words", "description": "White male mice (I.C.R.) weighing 16 to 18 g.\n1 gm of the dried powder was dissolved in 160 ml of tap water and was put into the animal cages in place of the usual drinking water, so that the test mice ingested it ad libitum. […]\nA large volume of ether extract from a powder of Rhizoma Atractylis alba was produced. Some definite weights of the ether extract were dissolved in small volumes of ethanol, and then diluted with water to obtain emulsions of ether extract/water of 1 mg/100 ml, 2 mg/100 ml, 3 mg/100 ml, 4 mg/100 ml and 5 mg/100 ml.\nThe emulsions were administered to I.C.R. male mice for one month as described in Example 4, and then the mice were inoculated with 200,000 cells of Sarcoma 180 intraperitoneally. The survival time of the inoculated mice was regressed to the concentration of ether extract administered. […]\nMandelic acid, mandelic acid isoamyl ester (Atractyl), mandelic acid methyl ester, mandelic acid ethyl ester and atrolactic acid were tested by the same procedure as described in Example 6.", "note": "“Also recorded” adds a separate entry of the source."}
{"smiles": "CC(C)CCOC(=O)C(O)c1ccccc1", "note": "(stereo not shown) [Atractyl, mandelic acid isoamyl ester]", "values": [{"measurement": "effectiveness against Sarcoma 180 compared with the extract of the natural herb", "value": "less effective than the extract from the natural herb; also recorded: significantly less than that of the extract of the natural herb"}, {"measurement": "effectiveness for treating mice inoculated with Sarcoma 180", "value": "somewhat effective"}]}
{"smiles": "O=C(O)C(O)c1ccccc1", "note": "(stereo not shown) [Mandelic acid]", "values": [{"measurement": "effectiveness against Sarcoma 180 compared with the extract of the natural herb", "value": "less effective than the extract from the natural herb"}, {"measurement": "effectiveness for treating mice inoculated with Sarcoma 180", "value": "somewhat effective"}]}
{"smiles": "CCOC(=O)C(O)c1ccccc1", "note": "(stereo not shown) [mandelic acid ethyl ester]", "values": [{"measurement": "effectiveness against Sarcoma 180 compared with the extract of the natural herb", "value": "less effective than the extract from the natural herb"}, {"measurement": "effectiveness for treating mice inoculated with Sarcoma 180", "value": "somewhat effective"}]}
{"smiles": "COC(=O)C(O)c1ccccc1", "note": "(stereo not shown) [mandelic acid methyl ester]", "values": [{"measurement": "effectiveness against Sarcoma 180 compared with the extract of the natural herb", "value": "less effective than the extract from the natural herb"}, {"measurement": "effectiveness for treating mice inoculated with Sarcoma 180", "value": "somewhat effective"}]}
{"smiles": "CC(O)(C(=O)O)c1ccccc1", "note": "(stereo not shown) [atrolactic acid]", "values": [{"measurement": "effectiveness against Sarcoma 180 compared with the extract of the natural herb", "value": "less effective than the extract from the natural herb"}, {"measurement": "effectiveness for treating mice inoculated with Sarcoma 180", "value": "somewhat effective"}]}
